# From article PMC5936713, “Structural and functional studies of Spr1654: an essential aminotransferase in teichoic acid biosynthesis in Streptococcus pneumoniae” (Open Biology, 2018)
# Tests used:
# Spr1654 [1] = target: T1, Spr1654 (Streptococcus pneumoniae, UniProt A0A0H2URM1); assay: transamination half-reaction, PLP ([…] nm) to PMP ([…] nm) absorbance; assay type: biochemical; settings: 0.5 mM L-glutamate, Spr1654/PLP 0.9 mg/ml, 50 mM MES pH 6.6, 200 mM NaCl, 25 °C; amino donor
# T1 construct: gene SP_1837; full-length, C-terminal His6 tag (pET-23b), expressed in E. coli T7 Express; homodimer; residues Tyr4-Thr404 seen in crystals
# Spr1654 [2] = target: T1, Spr1654; assay: X-ray crystal structure, […] Å; assay type: binding; settings: PMP formed by adding L-glutamate to the PLP complex before crystallization; active site
# Spr1654 [3] = target: T1, Spr1654; assay: X-ray crystal structure, […] Å; absorption spectroscopy ([…] nm); assay type: binding; settings: covalent; internal aldimine with Lys199; 1 mM PLP preincubated, pH 7.5
# [4] = target: Spr1654 aminotransferase from Streptococcus pneumoniae, full length with C-terminal poly-histidine (Streptococcus pneumoniae) (UniProt Q8DNL6); assay: SEC; Superdex200 Increase 10/300 GL gel filtration, 20 mM Tris-HCl pH 7.5, 200 mM NaCl, 4°C; oligomeric state from the elution profile
molecule,measurement,setting,value
"N[C@@H](CCC(=O)O)C(=O)O [E, L-glutamate]","transamination half-reaction, PLP (420 nm) to PMP (330 nm) absorbance",Spr1654 [1],Spr1654 is able to deaminate L-glutamate in the first half-reaction of transamination with high efficiency
Cc1ncc(COP(=O)(O)O)c(CN)c1O [PMP],"X-ray crystal structure, 2.4 Å",Spr1654 [2],"In the crystal structure of the Spr1654/PMP complex, the phosphate group serves as the main anchor"
Cc1ncc(COP(=O)(O)O)c(C=O)c1O [PLP],"X-ray crystal structure, 2.2 Å; absorption spectroscopy (420 nm)",Spr1654 [3],Clear electron density confirms the formation of a covalent bond between PLP and residue Lys199
"Spr1654 aminotransferase from Streptococcus pneumoniae, full length with C-terminal poly-histidine (from UniProt Q8DNL6 1-417) (enzyme)",stoichiometry N,[4],2
